Laboratory results reported in US7732456B2, “Pyridone derivative” (Banyu Pharmaceutical Co., Ltd., priority 2004, dated 2010).
Read-outs that look alike come from different tables or passages of the source.

Key:
human MCH-1R = target: T1, human MCH-1R (Homo sapiens, UniProt Q99705); experiment: MCH binding inhibition test; conditions: membranes of CHO-K1 cells expressing human MCH-1R, 50 pM [125I]MCH, 25° C., an hour; read-out: IC50 (50% inhibition concentration to specific [125I]MCH binding)
T1 construct: expressed in transfected cells; host or cells: CHO-K1 (American Type Culture Collection), plasmid vector pEF/myc/cyto (Invitrogen)
T1 sequence (Q99705 whole entry): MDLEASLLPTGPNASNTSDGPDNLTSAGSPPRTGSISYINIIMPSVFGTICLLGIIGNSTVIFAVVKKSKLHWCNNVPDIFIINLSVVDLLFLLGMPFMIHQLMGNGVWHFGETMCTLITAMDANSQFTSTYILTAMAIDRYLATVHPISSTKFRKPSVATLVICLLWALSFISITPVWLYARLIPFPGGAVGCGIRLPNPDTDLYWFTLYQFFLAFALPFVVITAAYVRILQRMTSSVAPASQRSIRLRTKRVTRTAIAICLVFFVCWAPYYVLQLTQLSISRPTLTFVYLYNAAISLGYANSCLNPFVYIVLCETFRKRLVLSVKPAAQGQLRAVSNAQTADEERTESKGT
Procedure: The obtained expression vector was transfected to a host cell CHO-K1 (American Type Culture Collection) using Lipofectamine Plus Reagent (Life Technology Inc.) to provide MCH-1R expression cells.
After washing the glass filter with 50 mM Tris buffer (pH7.4) comprising 10 mM magnesium chloride, 2 mM ethylenediamine tetraacetate and 0.04% Tween-20, radiative activity on the glass filter was measured. […] MCH binding was determined.

[1] = Internal kinetics test (plasma concentration after oral or intravenous administration); type: in vivo; conditions: SD male rats fasted overnight
Procedure: A test compound was orally or intravenously administered to SD male rats (7 to 10 weeks-age, 200 to 400 g) which had fasted overnight, and within a predetermined period of time, about 100 μL of the blood per rat was collected via the tail vein, using a heparinized capillary. The blood was centrifuged (4° C., 6,000 rpm, 10 minutes) to provide plasma. To the plasma tree-fold the amount thereof of ethanol (including an internal standard substance) was added and stored, followed by standing at −20° C. for 20 minutes and then centrifuge (4° C., 10,000 rpm, 10 minutes). The supernatant was analyzed through LC/MS/MS, and the plasma concentration of the test compound was quantified according to a relative calibration curve method.

[2] = Brain/cerebrospinal fluid migration test; type: in vivo; conditions: SD male rats, after 2 hours of oral administration (10 mg/kg); for concentration at 2 h: rat
Description: A test compound was orally or intravenously administered to SD male rats (7 to 10 weeks-age, 200 to 400 g). Under anesthesia with ether for a predetermined period of time, from each of the rats whole blood was collected from its abdominal aorta using a heparin-processed syringe. Thereafter the brain skin was cut open and a 30 G needle for dental use was pierced between the cervical vertebrae and inserted into the subarachnoid cavity. Through the tube connected with the dental 30 G needle, 50-100 μL of the cerebrospinal fluid was collected into a 1-mL syringe, and then the brain was taken out. Each blood sample was centrifuged (4° C., 6,000 rpm,10 minutes) and the resulting plasma was stirred with three-fold the amount thereof of ethanol (including an internal standard substance). The brain sample was added with 2 mL of water and homogenized, a part of which was taken and stirred with three-fold the amount thereof of ethanol (including an internal standard substance). The cerebrospinal fluid was stirred with three-fold the amount thereof of ethanol (including an internal standard substance). Those samples were allowed to stand for 20 minutes at −20° C., and then centrifuged (4° C., 12,000 g, 10 minutes). The supernatant was analyzed through LC/MS/MS, and the concentration levels of the test compound in the plasma, in the brain and in the cerebrospinal fluid were quantified according to a relative calibration curve method.

In the case of `CC(C)N1CC[C@@H](Oc2ccc(-n3ccc(OCc4ccc(Cl)cn4)cc3=O)cc2)C1` [Example 122, 4-[(5-Chloro-2-pyridinyl)methoxy]-1-(4-{[(3R)-1-isopropyl-3-pyrrolidinyl]-oxy}phenyl)-1H-pyridin-2-one], the melting point is reported as 154 to 155 °C.

With `C[C@@H]1CC[C@@H](C)N1CCOc1ccc(-n2ccc(OCc3ccc(F)cc3)cc2=O)cc1` (relative stereo) [Example 32, 4-(4-Fluorobenzyloxy)-1-{4-[2-(trans-2,5-dimethyl-1-pyrrolidinyl)ethoxy]-phenyl}-1H-pyridin-2-one] the IC50 (human MCH-1R) was 3.5 nM.

`O=c1cc(OCc2ccccc2)ccn1-c1ccc(O[C@@H]2CCN(C3CCCC3)C2)cc1` [Example 18, 4-Benzyloxy-1-(4-{[(3R)-1-cyclopentyl-3-pyrrolidinyl]oxy}-phenyl)-1H-pyridin-2-one] gave an IC50 (human MCH-1R) of 4.3 nM.

`O=c1cc(OCc2ccc(F)cc2)ccn1-c1ccc(O[C@@H]2C[C@H]3CCCN3C2)cc1` [Example 92, 4-(4-Fluorobenzyloxy)-1-{4-[(2R,7aR)-hexahydro-1H-pyrrolidin-2-yloxy]phenyl}-1H-pyridin-2-one] showed an IC50 (human MCH-1R) of 8.8 nM.

`CN(CCOc1ccc(-n2ccc(OCc3ccccc3)cc2=O)cc1)Cc1ccccc1` [Example 5, 4-Benzyloxy-1-(4-{2-[benzyl(methyl)amino]ethoxy}phenyl)-1H-pyridin-2-one] gave an IC50 (human MCH-1R) of 3.8 nM.

Compound `O=c1cc(/C=C/c2ccc(F)cc2)ccn1-c1ccc(OCCN2CCCC2)cc1` [Example 45, 4-[(E)-2-(4-Fluorophenyl)vinyl]-1-{4-[2-(1-pyrrolidinyl)ethoxy]phenyl}-1H-pyridin-2-one] has an IC50 (human MCH-1R) of 1.5 nM.

`O=c1cc(OCc2cccc(Cl)c2)ccn1-c1ccc(OCCN2CCCC2)cc1` [Example 75, 4-(3-Chlorobenzyloxy)-1-{4-[2-(1-pyrrolidinyl)ethoxy]phenyl}-1H-pyridin-2-one] gave an IC50 (human MCH-1R) of 4.2 nM.

`CCCN(C)CCOc1ccc(-n2ccc(OCc3ccc(Cl)cn3)cc2=O)cc1` [Example 116, 4-[(5-Chloro-2-pyridinyl)methoxy]-1-(4-{2-[methyl(propyl)amino]ethoxy}-phenyl)-1H-pyridin-2-one] showed a melting point of 119 to 123 °C.

In the case of `COc1ccc(COc2ccn(-c3ccc(OCCN4CCCC4)cc3)c(=O)c2)cc1` [Example 73, 4-(4-Methoxybenzyloxy)-1-{4-[2-(1-pyrrolidinyl)ethoxy]phenyl}-1H-pyridin-2-one], the IC50 (human MCH-1R) is reported as 7 nM.

With `O=c1cc(OCc2ccccc2)ccn1-c1ccc(OCCN2CCCCC2)cc1` [Example 2, 4-Benxyloxy-1-{4-[2-(1-piperidinyl)ethoxy]phenyl}-1H-pyridin-2-one] the IC50 (human MCH-1R) was 4.4 nM.

For `O=c1cc(OCc2ccc(F)cc2)ccn1-c1ccc(OCCN2CCCC2)cc1` [Example 29, 4-(4-Fluorobenzyloxy)-1-{4-[2-(1-pyrrolidinyl)ethoxy]phenyl}-1H-pyridin-2-one], the IC50 (human MCH-1R) was 5.6 nM, the “half-value period in blood” value [1] was 3.9 h and the bioavailability ([1]; rat, plasma, oral) was 79%.

`CC(C)N1CC[C@@H](Oc2ccc(-n3ccc(OCc4ccccc4)cc3=O)cc2)C1` [Example 19, 4-Benzyloxy-1-(4-{[(3R)-1-isopropyl-3-pyrrolidinyl]oxy}phenyl)-1H-pyridin-2-one] showed an IC50 (human MCH-1R) of 5.1 nM.

For `O=c1cc(OCc2ccsc2)ccn1-c1ccc(OCCN2CCCC2)cc1` [Example 68, 1-{4-[2-(1-Pyrrolidinyl)ethoxy]phenyl}-4-(3-thienylmethoxy)-1H-pyridin-2-one], the IC50 (human MCH-1R) was 4.5 nM.

In the case of `CCN(C)CCOc1ccc(-n2ccc(OCc3ccc(Cl)cn3)cc2=O)cc1` [Example 114, 4-[(5-Chloro-2-pyridinyl)methoxy]-1-(4-{2-[ethyl(methyl)amino]ethoxy}-phenyl)-1H-pyridin-2-one], the IC50 (human MCH-1R) is reported as 5.4 nM.

Work on `Cc1cc(-n2ccc(OCc3ccccc3)cc2=O)ccc1OCCN1CCCCC1` [Example 21] yielded an IC50 (human MCH-1R) of 2.9 nM.

In the case of `O=c1cc(OCc2ccc(F)cc2)ccn1-c1ccc(OCCN2CCCCC2)cc1` [Example 28, 4-(4-Fluorobenzyloxy)-1-{4-[2-(1-piperidinyl)ethoxy]phenyl}-1H-pyridin-2-one], the IC50 (human MCH-1R) is reported as 4.9 nM.

For `O=c1cc(OCc2ccc(F)cc2)ccn1-c1ccc(OCCN2C3CCC2CC3)cc1` [Example 90, 1-{4-[2-(7-Azabicyclo[2.2.1]hept-7-yl)ethoxy]phenyl}-4-(4-fluorobenzyloxy)-1H-pyridin-2-one], the IC50 (human MCH-1R) was 2.7 nM.

For `CN1CCC[C@H]1COc1ccc(-n2ccc(OCc3ccc(Cl)cn3)cc2=O)cc1` [Example 134, 4-[(5-Chloro-2-pyridinyl)methoxy]-1-(4-{[(2S)-1-methyl-2-pyrrolidinyl]-methoxy}phenyl)-1H-pyridin-2-one], the IC50 (human MCH-1R) was 8.6 nM.

In the case of `CCN(CC)CCOc1ccc(-n2ccc(OCc3ccc(Cl)cn3)cc2=O)cc1` [Example 101], the IC50 (human MCH-1R) is reported as 5.4 nM and the melting point is reported as 112 to 115 °C.

In the case of `O=c1cc(OCc2ccccc2)ccn1-c1ccc(OCCN2CCCC2)cc1` [Example 12, 4-Benzyloxy-1-{4-[2-(1-pyrrolidinyl)ethoxy]phenyl}-1H-pyridin-2-one], the melting point is reported as 109 to 111 °C.

For `CN1CC[C@@H](Oc2ccc(-n3ccc(OCc4ccc(Cl)cn4)cc3=O)cc2)C1` [Example 124, 4-[(5-Chloro-2-pyridinyl)methoxy]-1-(4-{[(3R)-1-methyl-3-pyrrolidinyl]-oxy}phenyl)-1H-pyridin-2-one], the IC50 (human MCH-1R) was 6.8 nM.

`O=C1CCCN1CCOc1ccc(-n2ccc(OCc3ccc(F)cc3)cc2=O)cc1` [Example 95, 4-(4-Fluorobenzyloxy)-1-{4-[2-(2-oxo-1-pyrrolidinyl)ethoxy]phenyl}-1H-pyridin-2-one] showed a melting point of 148 to 149 °C.

In the case of `O=c1cc(OCc2ccc(Cl)cn2)ccn1-c1ccc(OCCN2CCCC2)cc1` [Example 40, 4-[(5-Chloro-2-pyridinyl)methoxy]-1-{4-[2-(1-pyrrolidinyl)ethoxy]phenyl}-1H-pyridin-2-one], the melting point is reported as 168 to 170 °C.

Compound `CN(C)CCOc1ccc(-n2ccc(OCc3ccccc3)cc2=O)cc1` [Example 1, 4-Benzyloxy-1-{4-[2-(dimethylamino)ethoxy]phenyl}-1H-pyridin-2-one] has an IC50 (human MCH-1R) of 9.5 nM, a brain concentration [2] of 2.33 nmol/g and a concentration at 2 h ([2]; cerebrospinal fluid, read-out: cerebrospinal fluid concentration) of 46 nM. For the same compound, the concentration at 2 h ([2]; plasma, read-out: plasma concentration) was 250 nM.

Work on `O=c1cc(OCc2ccccc2)ccn1-c1ccc(OCCN2CCCC2)c(F)c1` [Example 23, 4-Benzyloxy-1-{3-fluoro-4-[2-(1-pyrrolidinyl)ethoxy]phenyl}-1H-pyridin-2-one] yielded an IC50 (human MCH-1R) of 5.2 nM.

For `CC(C)N(C)CCOc1ccc(-n2ccc(OCc3ccc(Cl)cn3)cc2=O)cc1` [Example 115, 4-[(5-Chloro-2-pyridinyl)methoxy]-1-(4-{2-[isopropyl(methyl)amino]ethoxy}-phenyl)-1H-pyridin-2-one], the IC50 (human MCH-1R) was 5.5 nM and the melting point was 137 to 138 °C.

`O=c1cc(CCc2ccccc2)ccn1-c1ccc(OCCN2CCCC2)cc1` [Example 53, 4-(2-Phenylethyl)-1-{4-[2-(1-pyrrolidinyl)ethoxy]phenyl}-1H-pyridin-2-one] showed an IC50 (human MCH-1R) of 4.4 nM.

For `CCN1CC[C@@H](Oc2ccc(-n3ccc(OCc4ccc(Cl)cn4)cc3=O)cc2)C1` [Example 123, 4-[(5-Chloro-2-pyridinyl)methoxy]-1-(4-{[(3R)-1-ethyl-3-pyrrolidinyl]-oxy}phenyl)-1H-pyridin-2-one], the melting point was 145 to 146 °C.

Compound `O=c1cc(OCc2ccc(F)cc2)ccn1-c1ccc(OCCN2C3CCCC2CC3)cc1` [Example 91, 1-{4-[2-(8-Azabicylo[3.2.1]oct-8yl)ethoxy]phenyl}-4-(4-fluorobenzyloxy)-1H-pyridin-2-one] has an IC50 (human MCH-1R) of 3.5 nM.

Work on `O=c1cc(OCc2ccccc2)ccn1-c1ccc(OCCN2C3CCC2CC3)cc1` [Example 86, 1-{4-[2-(7-Azabicyclo[2.2.1]hept-7-yl)ethoxy]phenyl}-4-benzyloxy-1H-pyridin-2-one] yielded an IC50 (human MCH-1R) of 1.9 nM.

In the case of `CCN(CC)CCOc1ccc(-n2ccc(OCc3ccc(F)cc3)nc2=O)cc1` [Example 81], the IC50 (human MCH-1R) is reported as 7.8 nM.

Work on `CCN(CC)CCOc1ccc(-n2ccc(OCc3ccc(F)cc3)cc2=O)cc1` [Example 30, 1-{4-[2-(Diethylamino)ethoxy]phenyl}-4-(4-fluorobenzyloxy)-1H-pyridin-2-one] yielded an IC50 (human MCH-1R) of 4.8 nM.

`O=c1cc(OCc2ccc(Cl)cn2)ccn1-c1ccc(OC[C@H]2CCCN2C2CCC2)cc1` [Example 133] gave an IC50 (human MCH-1R) of 4.7 nM.
